This note sets out measurements from patent US8765779B2, “Tricyclic derivatives and their pharmaceutical use and compositions” (Cephalon, Inc., priority 2009, dated 2014).

The structures appear in SMILES notation.

As a reminder, the Ki is the dissociation constant of the complex between target and ligand, obtained from inhibition or displacement.

In the assay the target is T1, human 5-HT6 receptor (Homo sapiens, UniProt P50406).
T1 construct: host or cells: CHO-K1 cells, stably transfected; membranes prepared in house
T1 sequence (P50406 whole entry): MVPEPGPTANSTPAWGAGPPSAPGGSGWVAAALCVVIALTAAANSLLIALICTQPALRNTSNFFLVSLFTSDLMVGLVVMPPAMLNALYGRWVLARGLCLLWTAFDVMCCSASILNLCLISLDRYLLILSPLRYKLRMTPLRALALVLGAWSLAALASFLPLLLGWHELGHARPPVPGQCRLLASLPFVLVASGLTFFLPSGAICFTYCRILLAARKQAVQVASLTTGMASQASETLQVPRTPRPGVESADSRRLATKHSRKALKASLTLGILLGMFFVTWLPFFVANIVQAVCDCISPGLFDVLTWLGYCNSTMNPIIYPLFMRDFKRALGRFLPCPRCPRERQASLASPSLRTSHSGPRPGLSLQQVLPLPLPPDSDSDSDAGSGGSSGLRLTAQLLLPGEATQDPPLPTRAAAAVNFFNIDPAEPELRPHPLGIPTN
Briefly: Human 5-HT6 Receptor Binding Assay ([3H]LSD displacement, scintillation beads). The settings on record: membranes of CHO-K1 cells with recombinant human 5-HT6, 4 nM [3H]LSD; Table 1, class symbols; read-out: h5-HT6 (Ki).
`O=S(=O)(c1ccc2c(c1)OC1CNCCC21)c1cccc2c1CCO2` (stereo not shown) [Example 405]: the Ki was 500 to 1000 nM. `CC(C)Oc1ccccc1S(=O)(=O)c1ccc2c(c1)OC1CNCCC21` (stereo not shown) [Example 406]: the Ki is below 500 nM.

For `COc1cc(F)cc(S(=O)(=O)c2ccc3c(c2)OC2CNCCC32)c1` (stereo not shown) [Example 407], the inhibitory constant (Ki) is below 500 nM. Consider `O=S(=O)(c1ccc2c(c1)OC1CNCCC21)c1ccccc1OCC(F)(F)F` (stereo not shown) [Example 408], for which the inhibition constant (Ki) was below 500 nM.

Take `O=S(=O)(c1ccc2c(c1)OC1CNCCC21)c1cccc(Cl)c1F` (stereo not shown) [Example 409]: the Ki is below 500 nM.

In the case of `O=S(=O)(c1ccc2c(c1)OC1CNCCC21)c1cccnc1C(F)(F)F` (stereo not shown) [Example 410], the Ki fell in the range of 500 to 1000 nM. With `O=S(=O)(c1ccc2c(c1)OC1CNCCC21)c1cccc(F)c1F` (stereo not shown) [Example 411], the Ki was below 500 nM. The result for `O=S(=O)(c1ccc2c(c1)OC1CNCCC21)c1cc(F)cc(F)c1F` (stereo not shown) [Example 412] reads below 500 nM. Regarding `CCOc1cc(F)cc(S(=O)(=O)c2ccc3c(c2)OC2CNCCC32)c1` (stereo not shown) [Example 413], the Ki was below 500 nM.

In the case of `CC(C)COc1cc(F)cc(S(=O)(=O)c2ccc3c(c2)OC2CNCCC32)c1` (stereo not shown) [Example 414], the Ki was below 500 nM. For the compound `O=S(=O)(c1cc(F)cc(OCC(F)(F)F)c1)c1ccc2c(c1)OC1CNCCC21` (stereo not shown) [Example 415], the Ki is below 500 nM. Regarding `COc1cccc(S(=O)(=O)c2ccc3c(c2)OC2CNCCC32)c1F` (stereo not shown) [Example 416], the Ki was below 500 nM. Take `CC(C)Oc1cc(F)cc(S(=O)(=O)c2ccc3c(c2)OC2CNCCC32)c1` (stereo not shown) [Example 417]: the Ki is below 500 nM. `O=S(=O)(c1ccc2c(c1)OC1CNCCC21)c1cccc2c1CCO2` (stereo not shown) [Example 418]: the Ki is below 500 nM. The result for `CC(C)Oc1ccccc1S(=O)(=O)c1ccc2c(c1)OC1CNCCC21` (stereo not shown) [Example 419] reads below 500 nM; that for `COc1cc(F)cc(S(=O)(=O)c2ccc3c(c2)OC2CNCCC32)c1` (stereo not shown) [Example 420], below 500 nM. For the compound `O=S(=O)(c1ccc2c(c1)OC1CNCCC21)c1ccccc1OCC(F)(F)F` (stereo not shown) [Example 421], the Ki is below 500 nM. Turning to `O=S(=O)(c1ccc2c(c1)OC1CNCCC21)c1cccc(Cl)c1F` (stereo not shown) [Example 422], the Ki is below 500 nM. Take `O=S(=O)(c1ccc2c(c1)OC1CNCCC21)c1cccnc1C(F)(F)F` (stereo not shown) [Example 423]: the Ki is below 500 nM.

Turning to `CC(C)COc1cc(F)cc(S(=O)(=O)c2ccc3c(c2)OC2CNCCC32C)c1` (stereo not shown) [Example 424], the Ki was below 500 nM. For the compound `CN(C)C(=O)c1cccc(S(=O)(=O)c2ccc3c(c2)OC2CNCCC32C)c1` (stereo not shown) [Example 425], the Ki is above 1000 nM.

For `CCOc1cc(F)cc(S(=O)(=O)c2ccc3c(c2)OC2CNCCC32C)c1` (stereo not shown) [Example 426], the Ki is below 500 nM. `CC(C)Oc1cc(F)cc(S(=O)(=O)c2ccc3c(c2)OC2CNCCC32C)c1` (stereo not shown) [Example 427]: the Ki was below 500 nM. In the case of `CC12CCNCC1Oc1cc(S(=O)(=O)c3cc[nH]c(=O)c3)ccc12` (stereo not shown) [Example 428], the Ki is above 1000 nM. Turning to `CC12CCNCC1Oc1cc(S(=O)(=O)c3cncc(F)c3)ccc12` (stereo not shown) [Example 429], the Ki is above 1000 nM. Consider `CC12CCNCC1Oc1cc(S(=O)(=O)c3cncc(Cl)c3)ccc12` (stereo not shown) [Example 430], for which the Ki was below 500 nM. With `CC12CCNCC1Oc1cc(S(=O)(=O)c3cncc(C(F)(F)F)c3)ccc12` (stereo not shown) [Example 431], the Ki was above 1000 nM. Consider `O=S(=O)(c1ccc2c3c(oc2c1)CNCC3)c1cccc(F)c1F` [Example 432], for which the Ki is below 500 nM. The result for `O=S(=O)(c1ccc2c3c(oc2c1)CNCC3)c1cccnc1F` [Example 434] reads below 500 nM; that for `[O-][S+](c1ccc2c3c(oc2c1)CNCC3)c1cccnc1Cl` (stereo not shown) [Example 435], above 1000 nM; that for `O=S(=O)(c1ccc2c3c(oc2c1)CNCC3)c1cccnc1Cl` [Example 436], below 500 nM. The result for `O=S(=O)(c1cncc(Cl)c1)c1ccc2c3c(oc2c1)CNCC3` [Example 437] reads below 500 nM; that for `O=S(=O)(c1cccnc1)c1ccc2c3c(oc2c1)CNCC3` [Example 438], below 500 nM. The result for `CC(C)Oc1ncccc1S(=O)(=O)c1ccc2c3c(oc2c1)CNCC3` [Example 439] reads below 500 nM; that for `O=S(=O)(c1ccc2c3c(oc2c1)CNCC3)c1cccnc1OCC(F)(F)F` [Example 440], below 500 nM. As for `O=S(=O)(c1cncc(F)c1)c1ccc2c3c(oc2c1)CNCC3` [Example 441], the Ki is below 500 nM. Regarding `[O-][S+](c1ccc2oc3c(c2c1)CCNC3)c1cccc(F)c1F` (stereo not shown) [Example 442], the Ki is above 1000 nM. `[O-][S+](c1ccc2oc3c(c2c1)CCNC3)c1cc(F)cc(F)c1F` (stereo not shown) [Example 443]: the Ki was above 1000 nM.

With `[O-][S+](c1ccc2oc3c(c2c1)CCNC3)c1cccnc1F` (stereo not shown) [Example 444], the Ki was above 1000 nM.

For the compound `[O-][S+](c1ccc2oc3c(c2c1)CCNC3)c1cccnc1Cl` (stereo not shown) [Example 445], the Ki was above 1000 nM.

Regarding `CC(C)Oc1ncccc1[S+]([O-])c1ccc2oc3c(c2c1)CCNC3` (stereo not shown) [Example 446], the Ki was below 500 nM. The result for `[O-][S+](c1ccc2oc3c(c2c1)CCNC3)c1cccnc1OCC(F)(F)F` (stereo not shown) [Example 447] reads above 1000 nM; that for `O=S(=O)(c1ccc2oc3c(c2c1)CCNC3)c1cccnc1OCC(F)(F)F` [Example 448], below 500 nM. `CC(C)Oc1ncccc1S(=O)(=O)c1ccc2oc3c(c2c1)CCNC3` [Example 449]: the Ki was below 500 nM.

Regarding `COc1cc(S(=O)(=O)c2ccc3c4c(oc3c2)CNCC4(C)C)c[n+]([O-])c1` [Example 450], the Ki is above 1000 nM. Consider `COc1cncc(S(=O)(=O)c2ccc3c4c(oc3c2)CNCC4(C)C)c1` [Example 451], for which the Ki was below 500 nM. For the compound `CC1(C)CNCc2oc3cc(S(=O)(=O)c4cncc(Cl)c4)ccc3c21` [Example 452], the Ki was below 500 nM. Turning to `COc1cc(S(=O)(=O)c2ccc3c4c(oc3c2)C2(CCOC2)NCC4(C)C)c[n+]([O-])c1` (stereo not shown) [Example 453], the Ki was above 1000 nM. For the compound `COc1cncc(S(=O)(=O)c2ccc3c4c(oc3c2)C2(CCOC2)NCC4(C)C)c1` (stereo not shown) [Example 454], the Ki was below 500 nM. `CC1(C)CNC2(CCOC2)c2oc3cc([S+]([O-])c4cncc(Cl)c4)ccc3c21` (stereo not shown) [Example 455]: the Ki is above 1000 nM. For `CC1(C)CNC2(CCOC2)c2oc3cc(S(=O)(=O)c4cncc(Cl)c4)ccc3c21` (stereo not shown) [Example 456], the Ki is below 500 nM. Turning to `O=S(=O)(c1ccc2c(c1)OC1CNCCC21)c1cccc2c1OCCO2` (stereo not shown) [Example 457], the inhibitory constant (Ki) is below 500 nM. For `COc1c(F)cc(F)cc1S(=O)(=O)c1ccc2c(c1)OC1CNCCC21` (stereo not shown) [Example 458], the Ki was above 1000 nM.

As to `O=S(=O)(c1cncc(C(F)(F)F)c1)c1ccc2c(c1)OC1CNCCC21` (stereo not shown) [Example 459], the Ki was above 1000 nM. The result for `CC12CCNCC1Oc1cc(S(=O)(=O)c3cccc4c3OC(F)(F)O4)ccc12` (stereo not shown) [Example 460] reads below 500 nM.

As to `O=S(=O)(c1ccc2c(c1)OC1CNCCC21)c1cccc2c1OC(F)(F)O2` (stereo not shown) [Example 461], the Ki was below 500 nM. With `O=S(=O)(c1ccc2c(c1)OC1CNCCC21)c1cccc2c1OCCO2` (stereo not shown) [Example 462], the Ki is above 1000 nM.

With `COc1c(F)cc(F)cc1S(=O)(=O)c1ccc2c(c1)OC1CNCCC21` (stereo not shown) [Example 463], the Ki is below 500 nM.
